Key:
[1] = tested on: Eotaxin-3 (CCL26) release in human whole blood stimulated with IL-4; assay: Human whole blood eotaxin-3 assay (IL-4 stimulated eotaxin-3 release); type: cell-based; conditions: Homo sapiens, 48 h, human whole blood stimulated with recombinant human IL-4, 48 h, geometric mean; for EC50: inhibition of eotaxin-3 release, given for test compounds with >80% Emax
Summary of the method: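 Lithium-heparin human whole blood was preincubated with compound (4-fold serial dilution, 0.5% DMSO final) for 2 h at 37° C, then stimulated with recombinant human IL-4 at […] final for 48 h. Eotaxin-3 (CCL26) in the supernatant was measured by MSD immunoassay.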

[2] = biological target: T1, Human STAT6 (truncated, aa122-658, with N-terminal His-tag) (Homo sapiens, UniProt P42226); assay: Surface plasmon resonance (SPR) assay, binding to human STAT6; conditions: Biacore 8K, 25° C, immobilized human STAT6 on CM5 chip, multi-cycle kinetics; geometric mean
T1 construct: Human STAT6 (truncated, aa122-658, with N-terminal His-tag, expressed in insect cells); His-tag (N); made in house; host or cells: insect cells
T1 sequence (P42226 122-658): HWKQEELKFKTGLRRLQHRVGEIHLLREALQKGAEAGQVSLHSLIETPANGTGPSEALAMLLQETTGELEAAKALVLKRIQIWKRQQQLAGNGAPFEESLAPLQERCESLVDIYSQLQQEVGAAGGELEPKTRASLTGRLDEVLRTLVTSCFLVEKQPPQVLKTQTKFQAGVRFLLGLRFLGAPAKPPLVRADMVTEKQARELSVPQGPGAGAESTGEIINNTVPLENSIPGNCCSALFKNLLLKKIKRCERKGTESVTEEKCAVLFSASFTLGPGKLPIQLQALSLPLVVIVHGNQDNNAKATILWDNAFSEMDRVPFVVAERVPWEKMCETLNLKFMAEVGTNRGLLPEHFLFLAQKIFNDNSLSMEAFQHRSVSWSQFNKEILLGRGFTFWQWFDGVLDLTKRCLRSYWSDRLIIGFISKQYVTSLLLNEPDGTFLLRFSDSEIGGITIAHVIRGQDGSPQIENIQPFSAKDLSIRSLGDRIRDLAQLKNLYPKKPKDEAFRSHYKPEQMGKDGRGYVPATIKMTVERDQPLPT
Summary of the method: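 Truncated STAT6 (aa122-658, N-His, insect-cell expressed) was amine-coupled to a CM5 chip, and compounds were run as multi-cycle kinetics at 25 °C in PBS-P+ with 2% DMSO (60 s contact, up to 300 s dissociation). KD came from steady-state isotherms at a late report point, fitted with free and with fixed theoretical Rmax (1:1).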

Row | EC50 [1] [nM] | Kd [2] [nM] | SMILES | Emax ([1]; given for test compounds with <80% Emax) [%]
1 | 957 | 134 | CNc1ccn(-c2ccnc3c2cc(CN2CCC(c4ccc(C(=O)N(C)C)cc4)CC2=O)n3C)c(=O)c1 (centres unmarked) [Example 1f8, N,N-Dimethyl-4-[1-[[1-methyl-4-[4-(methylamino)-2-oxo-1-pyridyl]pyrrolo[2,3-b]pyridin-2-yl]methyl]-2-oxo-4-piperidyl]benzamide] | 
2 | 44.7 | 9.79 | CN(C)C(=O)c1ccc(C2CCN(Cc3cc4c(-n5ccc6[nH]ncc6c5=O)ccnc4n3C)CC2)cc1 [Example 1j27, N,N-Dimethyl-4-[1-[[1-methyl-4-(4-oxo-1H-pyrazolo[4,3-c]pyridin-5-yl)pyrrolo[2,3-b]pyridin-2-yl]methyl]-4-piperidyl]benzamide] | 
3 | 74.7 | 16.6 | CNc1ccn(-c2ccnc3c2cc(CN2CCN(c4ccc(C(=O)N(C)C)cc4C)CC2)n3C)c(=O)c1 [Example 1m6, N,N,3-Trimethyl-4-(4-((1-methyl-4-(4-(methylamino)-2-oxopyridin-1 (2H)-yl)-1H-pyrrolo[2,3-b]pyridin-2-yl)methyl)piperazin-1-yl)benzamide] | 
4 | 32.1 | 11.8 | CNc1ccn(-c2ccnc3c2cc(CN2CC=C(c4ccc(C(=O)N(C)C)cc4C)CC2)n3C)c(=O)c1 [Example 1m9, N,N,3-Trimethyl-4-(1-((1-methyl-4-(4-(methylamino)-2-oxopyridin-1 (2H)-yl)-1H-pyrrolo[2,3-b]pyridin-2-yl)methyl)-1,2,3,6-tetrahydropyridin-4-yl)benzamide] | 
5 | 37.4 | 9.57 | [2H]C([2H])([2H])N(C(=O)c1ccc(C2=CCN(Cc3cc4c(-n5ccc(NC)cc5=O)ccnc4n3C)CC2)c(C)c1)C([2H])([2H])[2H] [Example 1m10, 3-Methyl-N,N-bis(methyl-d3)-4-(1-((1-methyl-4-(4-(methylamino)-2-oxopyridin-1 (2H)-yl)-1H-pyrrolo[2,3-b]pyridin-2-yl)methyl)-1,2,3,6-tetrahydropyridin-4-yl)benzamide] | 
6 | 15.6 | 8.66 | CNc1ccn(-c2ccnc3c2cc(CN2CC=C(c4c(C)cc(C(=O)N(C)C)cc4C)CC2)n3C)c(=O)c1 [Example 1m12, N,N,3,5-Tetramethyl-4-(1-((1-methyl-4-(4-(methylamino)-2-oxopyridin-1 (2H)-yl)-1H-pyrrolo[2,3-b]pyridin-2-yl)methyl)-1,2,3,6-tetrahydropyridin-4-yl)benzamide] | 
7 | 53.6 | 18.9 | CNc1ccn(-c2ccnc3c2cc(CN2CCN(c4ccc(C(=O)N(C)C)cc4C)C[C@@H]2C)n3C)c(=O)c1 [Example 1m18, (S)—N,N,3-Trimethyl-4-(3-methyl-4-((1-methyl-4-(4-(methylamino)-2-oxopyridin-1 (2H)-yl)-1H-pyrrolo[2,3-b]pyridin-2-yl)methyl)piperazin-1-yl)benzamide] | 
8 | 122 | 23.5 | CNc1ccn(-c2ccnc3c2cc(CN2CCN(c4ccc(C(=O)N(C)C)cc4C)C[C@H]2C)n3C)c(=O)c1 [Example 1m19, (R)—N,N,3-Trimethyl-4-(3-methyl-4-((1-methyl-4-(4-(methylamino)-2-oxopyridin-1 (2H)-yl)-1H-pyrrolo[2,3-b]pyridin-2-yl)methyl)piperazin-1-yl)benzamide] | 
9 |  | 35 | CNc1ccn(-c2ccnc3c2cc(CN2CC=C(c4ccc(C(=O)N(C)C)cc4)CC2)n3C)c(=O)c1 [Example 1m35, N,N-Dimethyl-4-(1-((1-methyl-4-(4-(methylamino)-2-oxopyridin-1 (2H)-yl)-1H-pyrrolo[2,3-b]pyridin-2-yl)methyl)-1,2,3,6-tetrahydropyridin-4-yl)benzamide] | 40 to 50
10 | 190 | 18.5 | CNc1ccn(-c2ccnc3c2cc(CN2CC=C(c4ccc(C(=O)N(C)C)cc4OC)CC2)n3C)c(=O)c1 [Example 1m54, 3-Methoxy-N,N-dimethyl-4-(1-((1-methyl-4-(4-(methylamino)-2-oxopyridin-1 (2H)-yl)-1H-pyrrolo[2,3-b]pyridin-2-yl)methyl)-1,2,3,6-tetrahydropyridin-4-yl)benzamide] | 
11 | 96.1 | 14.3 | CNc1ccn(-c2ccnc3c2cc(CN2CC=C(c4ccc(C(=O)N(C)C)cc4C(F)(F)F)CC2)n3C)c(=O)c1 [Example 1m59, N,N-Dimethyl-4-(1-((1-methyl-4-(4-(methylamino)-2-oxopyridin-1 (2H)-yl)-1H-pyrrolo[2,3-b]pyridin-2-yl)methyl)-1,2,3,6-tetrahydropyridin-4-yl)-3-(trifluoromethyl)benzamide] | 
12 | 170 | 12 | CNc1ccn(-c2ccnc3c2cc(CN2CC=C(c4ccc(C(=O)N(C)C)cc4Cl)CC2)n3C)c(=O)c1 [Example 1m64, 3-Chloro-N,N-dimethyl-4-[1-[[1-methyl-4-[4-(methylamino)-2-oxo-1-pyridyl]pyrrolo[2,3-b]pyridin-2-yl]methyl]-3,6-dihydro-2H-pyridin-4-yl]benzamide] | 
13 | 80.1 | 33.4 | CNc1ccn(-c2ccnc3c2cc(CN2CC=C(c4ncc(C(=O)N(C)C)cc4F)CC2)n3C)c(=O)c1 [Example 1m67, 5-Fluoro-N,N-dimethyl-6-[1-[[1-methyl-4-[4-(methylamino)-2-oxo-1-pyridyl]pyrrolo[2,3-b]pyridin-2-yl]methyl]-3,6-dihydro-2H-pyridin-4-yl]pyridine-3-carboxamide] | 
